Experimental data reported in US20180271110A1, “REDUCTION OF MICROBIAL ACTIVITY AND METHOD OF PROCESSING ANIMAL AND POULTRY PRODUCTS” (Zee Company, priority 2017, published 2018).
Read-outs that look alike come from different tables or passages of the source.

Tests used:
[1] = test system: Salmonella Enterica serovar enteriditis (SE); experiment: Antimicrobial efficacy of DCDMH vs DBDMH on Salmonella-contaminated chicken legs and beef cubes (15 s agitation in solution); type: cell-based; conditions: for log Reduction Ave.: 15 s agitation, 15 s drip
Method: In the following working example, a study was conducted to compare the antimicrobial efficacy of 1,3,-dichloro-5,5,-dimethylhydantoin (DCDMH) and 1,3,-dibromo-5,5,-dimethylhydantoin (DBDMH) at 200 ppm available chlorine on both chicken and beef test substrates. For sample preparation, chicken legs and beef cubes obtained from a local grocery store were used to conduct the following tests. Prior to exposure of the test substrates to the antimicrobial solutions having DCDMH or DBDMH, the test substrates were exposed for two hours in 300 mL of broth of Salmonella Enterica serovar enteriditis (SE), which had been grown to a concentration of >6 log 10 in Nutrient Broth for 2 h at 35° C. Following exposure, the test substrates were removed from the Nutrient Broth and allowed to drain and air dry for about 30 minutes at ambient room temperature before testing began.
1. The following solutions were prepared and distributed in 200 mL aliquots into Ziploc bags:
a. 200 ppm available chlorine solutions derived from DCDMH distributed it into an appropriate number of Ziploc bags;
b. FSIS new buffer solution containing Lecithin and Sodium thiosulfate (LST) into an appropriate number of Ziploc bags;
c. Phosphate Buffer Solution (PBS) into an appropriate number of Ziploc bags.
2. Into each bag of DCDMH solution, a Salmonella-contaminated test substrate was placed and agitated manually for 15 s. The test substrate was removed from the bag, allowed to drip for 15 s, then placed into a Ziploc bag containing 200 mL LST. The bag was then vigorously shaken for 45 s to neutralize the DCDMH and to release SE from the surface of the chicken leg.
3. After the bags were shaken, 100 μL from each of the shaken bags was removed and dispensed into test tubes containing 9.9 mL of DI HOH. The contents of these tubes were used for serial dilution.
4. As controls, a prepared test substrate was inserted into each of two bags of PBS and agitated manually for 15 s. The substrate was removed from the bag and placed directly into a Ziploc bag containing 200 mL LST. The bag was vigorously shaken for 45 s to release SE from the surface of the substrate.
5. Repeat Step 3 with the control solutions.
6. Serially dilute the contents of the test tubes from Step 3 above. Plate 100 μL aliquots on Salmonella-Shigella Agar (SSA), then incubate for 18-24 h at 35° C. Enumerate colonies that have black centers (presumptive SE) after incubation.
7. Repeat the entire protocol replacing the DCDMH solution with […] solution in Step 1.a.

[2] = test system: Salmonella Enterica serovar enteriditis (SE)
Method: In the following working example, a study was conducted to compare the antimicrobial efficacy of 1,3,-dichloro-5,5,-dimethylhydantoin (DCDMH) at various concentrations (100 ppm, 200 ppm, and 400 ppm) on beef test substrates from beef brisket and beef liver. For sample preparation, beef brisket and beef liver were cubed to have approximately […] of exposed surface. Prior to exposure of the test substrates to the antimicrobial solutions having DCDMH, the test substrates were incubated for two hours in 300 mL of broth of Salmonella Enterica serovar enteriditis (SE), which had been grown to a concentration of >6 log 10 in Nutrient Broth for 2 h at 35° C. Following exposure, the test substrates were removed from the Nutrient Broth and allowed to drain and air dry for about 30 minutes at ambient room temperature before testing began. The test was replicated 10 times for each concentration and two controls. The concentration of DCDMH was then tested on the exposed test substrates using spray and dip applications.
1. A test substrate cube was suspended on a stainless steel hook and the antimicrobial solution was atomized onto the cube to thoroughly cover all sides until solution was dripping from the test substrate cube, which was for about 5 to about 10 seconds;
2. The test substrate cube was allowed to drip for about 10 to about 50 seconds (to obtain total antimicrobial contact times of about 15 to about 60 seconds when combined with the exposure in step 1 above).
3. The test substrate cube was then placed in a Ziploc bag containing 100 mL of LST solution to neutralize any residual antimicrobial chemistry;
(§1) 4. The Ziploc bag containing the test substrate cube was then vigorously shaken for about for 45 seconds to release bacterial cells from the surface of the meat into the LST solution;
(§2) 5. A 100 μL aliquot of LST solution from the bag was injected into 9.9 mL of sterile phosphate buffer solution;
(§3) 6. The LST solution was serially diluted, then plated on Salmonella Shigella agar and incubated for 24 h prior to counting presumptive positive Salmonella colonies;
(§4) 7. This procedure was repeated at each concentration of DCDMH;
8. For controls, 2 cubes of each test substrate were treated as in steps 1-2 above, except the control substrate cubes were atomized with sterile deionized water in step 1 above. And then steps 2-6 of the process above were continued.
1. A test substrate cube was placed in a Ziploc bag containing 100 mL of the antimicrobial solution and allowed to remain in the solution for about 15 to about 30 seconds under gentle manual agitation;
2. The test substrate cube was removed from the test solution using sterile forceps and allowed to drip for about 0 to about 30 seconds (to obtain total antimicrobial contact times of about 15 to about 60 seconds when combined with the exposure in step 1 above);
8. For controls, 2 cubes of each test substrate were treated as in steps 1-2 above, except the control substrate cubes were placed in 100 mL Ziploc bags of phosphate buffer solution in step 1 above. And then steps 2-6 of the process above were continued.

[3] = test system: Salmonella Enterica serovar enteriditis (SE); remark: listed apart in the source
Method: In the following working example, a study was conducted to compare the antimicrobial efficacy of 1,3,-dichloro-5,5,-dimethylhydantoin (DCDMH) at various concentrations (50 ppm, 100 ppm, and 200 ppm) on chicken test substrates, namely, chicken legs and chicken liver. Prior to exposure of the test substrates to the antimicrobial solutions having DCDMH, the test substrates were incubated for two hours in 1000 mL of broth of Salmonella Enterica serovar enteriditis (SE), which had been grown to a concentration of >6 log 10 in Nutrient Broth for 2 h at 35° C. Following exposure, the test substrates were removed from the Nutrient Broth and allowed to drain and air dry for about 30 minutes at ambient room temperature before testing began. The test was replicated 10 times for each concentration and two controls. The concentration of DCDMH was then tested on the exposed test substrates using spray and dip applications.
1. A test poultry product (e.g., chicken leg or chicken liver) was suspended on a stainless steel hook in a spray cabinet and sprayed until the part was drenched with antimicrobial solution, which was for about 5 to about 10 seconds;
2. The test poultry product was allowed to drip for about 10 to about 50 seconds (to obtain total antimicrobial contact times of about 15 to about 60 seconds when combined with the exposure in step 1 above);
3. The test poultry product was then placed in a Ziploc bag containing 200 mL of LST solution to neutralize any residual antimicrobial chemistry;
4. The Ziploc bag containing the test poultry product was then vigorously shaken for about for 45 seconds to release bacterial cells from the surface of the poultry product into the LST solution;
as §2
6. The LST solution was serially diluted, then plated on Salmonella Shigella agar and incubated for 24-36 hours prior to counting presumptive positive Salmonella colonies;
as §4
8. For controls, 2 poultry legs and 2 poultry livers for the corresponding test were treated as in steps 1-2 above, except the control poultry products were drenched with sterile deionized water in step 1 above. And then steps 2-6 of the process above were continued.
1. A test poultry product was placed in a Ziploc bag containing 200 mL of the antimicrobial solution and allowed to remain in the solution for about 15 to about 30 seconds under gentle manual agitation;
2. The test poultry product was removed from the test solution using sterile forceps and allowed to drip for about 0 to about 30 seconds (to obtain total antimicrobial contact times of about 15 to about 60 seconds when combined with the exposure in step 1 above);
3. The test poultry product was then placed in a Ziploc bag containing 200 mL broth of LST solution to neutralize any residual antimicrobial chemistry;
as §1, §3
8. For controls, 2 poultry legs and 2 poultry liver for each test were treated as in steps 1-2 above, except the test substrate cubes were placed in 200 mL Ziploc bags of phosphate buffer solution in step 1 above. And then steps 2-6 of the process above were continued.

[4] = beef test substrate, 200 ppm available chlorine
[5] = chicken test substrate, 200 ppm available chlorine

Row | Compound | antimicrobial efficacy against S. Enteritidis compared with DBDMH ([1]; 200 ppm available chlorine, chicken and beef, short contact time) | log Reduction Ave. [1, 4] [log] | log Reduction Ave. [1, 5] [log] | anticipated efficacy (log reduction) under normal in-plant use conditions ([1]; normal in-plant use conditions, anticipated) [log] | Ave. Log Reduction ([2]; Beef Liver, Active Cl 100 ppm, Dip, 60 seconds) [log] | Ave. Log Reduction ([2]; Beef Liver, Active Cl 200 ppm, Spray, 30 seconds) [log] | Ave. Log Reduction ([2]; Beef Liver, Active Cl 400 ppm, Dip, 15 seconds) [log] | Ave. Log Reduction ([2]; Beef Muscle, Active Cl 100 ppm, Dip, 60 seconds) [log] | Ave. Log Reduction ([2]; Beef Muscle, Active Cl 200 ppm, Spray, 30 seconds) [log] | Ave. Log Reduction ([2]; Beef Muscle, Active Cl 400 ppm, Dip, 15 seconds) [log] | antimicrobial efficacy against S. Enteritidis ([2]; about 100 ppm to about 400 ppm, dip or spray application, beef substrates) | anticipated efficacy (log reduction) under normal in-plant use conditions ([2]; normal in-plant use conditions, about 100 to about 400 ppm, dip or spray, anticipated) [log] | Ave. Log Reduction ([3]; Chicken Leg, Active Cl 50 ppm, Dip, 60 seconds) [log] | Ave. Log Reduction ([3]; Chicken Leg, Active Cl 100 ppm, Spray, 30 seconds) [log] | Ave. Log Reduction ([3]; Chicken Leg, Active Cl 200 ppm, Dip, 15 seconds) [log] | Ave. Log Reduction ([3]; Chicken Liver, Active Cl 50 ppm, Dip, 60 seconds) [log] | Ave. Log Reduction ([3]; Chicken Liver, Active Cl 100 ppm, Spray, 30 seconds) [log] | Ave. Log Reduction ([3]; Chicken Liver, Active Cl 200 ppm, Dip, 15 seconds) [log] | antimicrobial efficacy against S. Enteritidis ([3]; about 50 ppm to about 200 ppm, dip or spray application, poultry products) | anticipated efficacy (log reduction) under normal in-plant use conditions ([3]; normal in-plant use conditions, about 50 to about 200 ppm, dip or spray, anticipated) [log]
1 | CC1(C)C(=O)N(Cl)C(=O)N1Cl [DCDMH, 1,3,-dichloro-5,5,-dimethylhydantoin] | substantially greater antimicrobial efficacy | 0.51 | 0.64 | > 1 | 0.90 | 1.01 | 1.11 | 0.89 | 0.91 | 1.18 | great antimicrobial efficacy | > 1 | 0.78 | 0.86 | 1.22 | 0.69 | 0.72 | 1.07 | great antimicrobial efficacy | > 1
2 | CC1(C)C(=O)N(Br)C(=O)N1Br [DBDMH, 1,3,-dibromo-5,5,-dimethylhydantoin, reference compound] |  | 0.15 | 0.29 |  |  |  |  |  |  |  |  |  |  |  |  |  |  |  |  | 
